Results: PMC3089805 (Chemmedchem, 2010)
≈ marks a conversion by molar mass, not a printed value.

Legend:
C. jejuni strain H840 = assay: MIC determination, liquid microdilution, C. jejuni; assay type: cell-based; settings: Campylobacter jejuni, H840, 27 h, read-out: MIC C. jejuni
H. pylori strain 26695 = assay: MIC determination, liquid microdilution, H. pylori; assay type: cell-based; settings: Helicobacter pylori, 26695, 27 h, read-out: MIC H. pylori

| Compound | MIC (C. jejuni strain H840) [µM] | MIC (H. pylori strain 26695) [µM] |
| --- | --- | --- |
| O=C(Nc1ncc([N+](=O)[O-])s1)c1cccc(F)c1 [Analogue 7, 3-Fluoro-N-(5-nitrothiazol-2-yl)benzamide] | 11.2 (≈ 2.99 µg/mL) | 0.9 (≈ 0.241 µg/mL) |
| O=C(Nc1ncc([N+](=O)[O-])s1)c1ccc(F)cc1F [Analogue 9, 2,4-Difluoro-N-(5-nitrothiazol-2-yl)benzamide] | 7 (≈ 2 µg/mL) | 0.4 (≈ 0.114 µg/mL) |
| O=C(Nc1ncc([N+](=O)[O-])s1)c1ccc(F)c(F)c1 [Analogue 10, 3,4-Difluoro-N-(5-nitrothiazol-2-yl)benzamide] | 5.3 (≈ 1.51 µg/mL) | 1.8 (≈ 0.513 µg/mL) |
| O=C(Nc1ncc([N+](=O)[O-])s1)c1c(F)cccc1F [Analogue 11, 2,6-Difluoro-N-(5-nitrothiazol-2-yl)benzamide] | 14 (≈ 3.99 µg/mL) | 0.7 (≈ 0.2 µg/mL) |
| O=C(Nc1ncc([N+](=O)[O-])s1)c1c(F)cc(F)cc1F [Analogue 12, 2,4,6-Trifluoro-N-(5-nitrothiazol-2-yl)benzamide] | 9.9 (≈ 3 µg/mL) | 4.9 (≈ 1.49 µg/mL) |
| O=C(Nc1ncc([N+](=O)[O-])s1)c1cc(F)c(F)c(F)c1 [Analogue 13, 3,4,5-Trifluoro-N-(5-nitrothiazol-2-yl)benzamide] | 4.9 (≈ 1.49 µg/mL) | 1.2 (≈ 0.364 µg/mL) |
| O=C(Nc1ncc([N+](=O)[O-])s1)c1cc(F)c(F)cc1F [Analogue 14, 2,4,5-Trifluoro-N-(5-nitrothiazol-2-yl)benzamide] | 9.9 (≈ 3 µg/mL) | 0.8 (≈ 0.243 µg/mL) |
| O=C(Nc1ncc([N+](=O)[O-])s1)c1cc(F)c(F)c(F)c1F [Analogue 15, 2,3,4,5-Tetrafluoro-N-(5-nitrothiazol-2-yl)benzamide] | 4.7 (≈ 1.51 µg/mL) | 1.2 (≈ 0.385 µg/mL) |
| O=C(Nc1ncc([N+](=O)[O-])s1)c1c(F)c(F)c(F)c(F)c1F [Analogue 16, 2,3,4,5,6-Pentafluoro-N-(5-nitrothiazol-2-yl)benzamide] |  | 7.4 (≈ 2.51 µg/mL) |
| N#Cc1cccc(C(=O)Nc2ncc([N+](=O)[O-])s2)c1 [Analogue 20, 3-Cyano-N-(5-nitrothiazol-2-yl)benzamide] | 36.5 (≈ 10 µg/mL) | 4.1 (≈ 1.12 µg/mL) |
| N#Cc1ccc(C(=O)Nc2ncc([N+](=O)[O-])s2)cc1 [Analogue 21, 4-Cyano-N-(5-nitrothiazol-2-yl)benzamide] | 43.8 (≈ 12 µg/mL) | 9.1 (≈ 2.5 µg/mL) |
| O=C(Nc1ncc([N+](=O)[O-])s1)c1ccccc1C(F)(F)F [Analogue 22, N-(5-Nitrothiazol-2-yl)-2-(trifluoromethyl)benzamide] | 18.9 (≈ 6 µg/mL) | 1.6 (≈ 0.508 µg/mL) |
| O=C(Nc1ncc([N+](=O)[O-])s1)c1ccc([N+](=O)[O-])cc1 [Analogue 27, 4-Nitro-N-(5-nitrothiazol-2-yl)benzamide] | 13.6 (≈ 4 µg/mL) | 1.3 (≈ 0.383 µg/mL) |
| COc1ccccc1C(=O)Nc1ncc([N+](=O)[O-])s1 [Analogue 28, 2-Methoxy-N-(5-nitrothiazol-2-yl)benzamide] | 17.9 (≈ 5 µg/mL) | 1.8 (≈ 0.503 µg/mL) |
| COc1cccc(C(=O)Nc2ncc([N+](=O)[O-])s2)c1 [Analogue 29, 3-Methoxy-N-(5-nitrothiazol-2-yl)benzamide] | 7.2 (≈ 2.01 µg/mL) | 1.3 (≈ 0.363 µg/mL) |
| COc1cc(C(F)(F)F)ccc1C(=O)Nc1ncc([N+](=O)[O-])s1 [Analogue 32, 2-Methoxy-N-(5-nitrothiazol-2-yl)-4-(trifluoromethyl)benzamide] |  | 0.9 (≈ 0.313 µg/mL) |
| COc1cc([N+](=O)[O-])ccc1C(=O)Nc1ncc([N+](=O)[O-])s1 [Analogue 33, 2-Methoxy-4-nitro-N-(5-nitrothiazol-2-yl)benzamide] | 9.3 (≈ 3.02 µg/mL) | 0.6 (≈ 0.195 µg/mL) |
| O=C(Nc1ncc([N+](=O)[O-])s1)c1cccc([N+](=O)[O-])c1O [Analogue 34, 2-Hydroxy-3-nitro-N-(5-nitrothiazol-2-yl)benzamide] | 103 (≈ 32 µg/mL) | 19.3 (≈ 5.99 µg/mL) |
| O=C(Nc1ncc([N+](=O)[O-])s1)c1ccc(F)cc1C(F)(F)F [Analogue 35, 4-Fluoro-N-(5-nitrothiazol-2-yl)-2-(trifluoromethyl)benzamide] | 23.9 (≈ 8.01 µg/mL) | 3.4 (≈ 1.14 µg/mL) |
| O=C(Nc1ncc([N+](=O)[O-])s1)c1ccc(C(F)(F)F)cc1[N+](=O)[O-] [Analogue 36, 2-Nitro-N-(5-nitrothiazol-2-yl)-4-(trifluoromethyl)benzamide] | 88.3 (≈ 32 µg/mL) | 8.3 (≈ 3.01 µg/mL) |
| O=C(Nc1ncc([N+](=O)[O-])s1)c1ccc(F)c([N+](=O)[O-])c1 [Analogue 37, 4-Fluoro-3-nitro-N-(5-nitrothiazol-2-yl)benzamide] | 51.2 (≈ 16 µg/mL) | 1.6 (≈ 0.5 µg/mL) |
| O=C(Nc1ncc([N+](=O)[O-])s1)c1cc(C(F)(F)F)ccc1Cl [Analogue 39, 2-Chloro-N-(5-nitrothiazol-2-yl)-5-(trifluoromethyl)benzamide] | 17.1 (≈ 6.01 µg/mL) | 1.1 (≈ 0.387 µg/mL) |
| O=C(Cc1ccccc1)Nc1ncc([N+](=O)[O-])s1 [Analogue 43, N-(5-Nitrothiazol-2-yl)-2-phenylacetamide] | 11.4 (≈ 3 µg/mL) | 0.7 (≈ 0.184 µg/mL) |
| O=C(CCc1ccccc1)Nc1ncc([N+](=O)[O-])s1 [Analogue 44, N-(5-Nitrothiazol-2-yl)-3-phenylpropanamide] | 1.8 (≈ 0.499 µg/mL) | 21.6 (≈ 5.99 µg/mL) |

| Compound | MIC (C. jejuni strain H840) [µM] | MIC (H. pylori strain 26695) [µM] |
| --- | --- | --- |
| O=C(CCCc1ccccc1)Nc1ncc([N+](=O)[O-])s1 [Analogue 45, N-(5-Nitrothiazol-2-yl)-4-phenylbutanamide] | 1.3 (≈ 0.379 µg/mL) | 0.3 (≈ 0.0874 µg/mL) |
| O=C(Nc1ncc([N+](=O)[O-])s1)[C@@H]1C[C@H]1c1ccccc1 [Analogue 46, (1R,2R)-N-(5-Nitrothiazol-2-yl)-2-phenylcyclopropanecarboxamide] | 2.6 (≈ 0.752 µg/mL) | 13.8 (≈ 3.99 µg/mL) |
| CC1=C(C(=O)Nc2ncc([N+](=O)[O-])s2)Cc2ccccc21 [Analogue 47, 3-Methyl-N-(5-nitrothiazol-2-yl)indene-2-carboxamide] | 26.5 (≈ 7.99 µg/mL) | 1.7 (≈ 0.512 µg/mL) |
| CCCC(=O)Nc1ncc([N+](=O)[O-])s1 [Analogue 49, N-(5-Nitrothiazol-2-yl)butyramide] | 13.9 (≈ 2.99 µg/mL) | 3.5 (≈ 0.753 µg/mL) |
| CCCCCCCC(=O)Nc1ncc([N+](=O)[O-])s1 [Analogue 51, N-(5-Nitrothiazol-2-yl)octanamide] | 5.5 (≈ 1.49 µg/mL) | 1.4 (≈ 0.38 µg/mL) |
| CCCCCCCCCC(=O)Nc1ncc([N+](=O)[O-])s1 [Analogue 52, N-(5-Nitrothiazol-2-yl)decanamide] | 107 (≈ 32 µg/mL) | 0.8 (≈ 0.24 µg/mL) |
| O=C(C=Cc1ccccc1)Nc1ncc([N+](=O)[O-])s1 [Analogue 54, N-(5-Nitrothiazol-2-yl)cinnamamide] | 2.7 (≈ 0.743 µg/mL) | 0.3 (≈ 0.0826 µg/mL) |
| O=C(/C=C/c1ccc(C(F)(F)F)cc1)Nc1ncc([N+](=O)[O-])s1 [Analogue 55, (E)-N-(5-Nitrothiazol-2-yl)-3-(4-(trifluoromethyl)phenyl)acrylamide] | 93.2 (≈ 32 µg/mL) | 0.5 (≈ 0.172 µg/mL) |
| O=C(Nc1ncc([N+](=O)[O-])s1)c1cc(Br)c(Br)o1 [Analogue 63, 4,5-Dibromo-N-(5-nitrothiazol-2-yl)furan-2-carboxamide] | 20.2 (≈ 8.02 µg/mL) | 2.8 (≈ 1.11 µg/mL) |
| O=C(Nc1ncc([N+](=O)[O-])s1)c1ccc(-c2ccccc2)o1 [Analogue 65, N-(5-Nitrothiazol-2-yl)-5-phenylfuran-2-carboxamide] | 102 (≈ 32 µg/mL) | 2.4 (≈ 0.757 µg/mL) |
| O=C(Nc1ncc([N+](=O)[O-])s1)c1ccc(-c2cccc(Cl)c2)o1 [Analogue 66, 5-(3-Chlorophenyl)-N-(5-nitrothiazol-2-yl)furan-2-carboxamide] | 22.9 (≈ 8.01 µg/mL) | 1.1 (≈ 0.385 µg/mL) |
| O=C(Nc1ncc([N+](=O)[O-])s1)c1ccc(-c2cccc(F)c2)o1 [Analogue 67, 5-(3-Fluorophenyl)-N-(5-nitrothiazol-2-yl)furan-2-carboxamide] | 24 (≈ 8 µg/mL) | 1.5 (≈ 0.5 µg/mL) |
| O=C(Nc1ncc([N+](=O)[O-])s1)c1ccc(-c2cccc([N+](=O)[O-])c2)o1 [Analogue 69, 5-(3-Nitrophenyl)-N-(5-nitrothiazol-2-yl)furan-2-carboxamide] | 16.7 (≈ 6.02 µg/mL) | 6.9 (≈ 2.49 µg/mL) |
| O=C(Nc1ncc([N+](=O)[O-])s1)c1ccc(-c2ccoc2)o1 [Analogue 70, N-(5-Nitrothiazol-2-yl)-2,3′-bifuran-5-carboxamide] | 13.1 (≈ 4 µg/mL) | 1.6 (≈ 0.488 µg/mL) |
| O=C(Nc1ncc([N+](=O)[O-])s1)c1ccc(-c2ccsc2)o1 [Analogue 71, N-(5-Nitrothiazol-2-yl)-5-(thiophen-3-yl)furan-2-carboxamide] | 99.6 (≈ 32 µg/mL) | 6.2 (≈ 1.99 µg/mL) |
| O=C(Nc1ncc([N+](=O)[O-])s1)c1cc2ccccc2o1 [Analogue 72, N-(5-Nitrothiazol-2-yl)benzofuran-2-carboxamide] | 111 (≈ 32 µg/mL) | 0.6 (≈ 0.174 µg/mL) |
| O=C(Nc1ncc([N+](=O)[O-])s1)c1cc2cc([N+](=O)[O-])ccc2o1 [Analogue 73, 5-Nitro-N-(5-nitrothiazol-2-yl)benzofuran-2-carboxamide] | 4.5 (≈ 1.5 µg/mL) | 4.5 (≈ 1.5 µg/mL) |
| O=C(Nc1ncc([N+](=O)[O-])s1)c1cc(Cl)sc1Cl [Analogue 75, 2,5-Dichloro-N-(5-nitrothiazol-2-yl)thiophene-3-carboxamide] | 2.3 (≈ 0.746 µg/mL) | 1.5 (≈ 0.486 µg/mL) |
| O=C(Nc1ncc([N+](=O)[O-])s1)c1sccc1Cl [Analogue 78, 3-Chloro-N-(5-nitrothiazol-2-yl)thiophene-2-carboxamide] | 20.7 (≈ 6 µg/mL) | 5.2 (≈ 1.51 µg/mL) |
| O=C(Nc1ncc([N+](=O)[O-])s1)c1ccc(-c2ccccc2)s1 [Analogue 80, N-(5-Nitrothiazol-2-yl)-5-phenylthiophene-2-carboxamide] | 72.4 (≈ 24 µg/mL) | 1.5 (≈ 0.497 µg/mL) |
| O=C(Nc1ncc([N+](=O)[O-])s1)c1ccc(-c2cccc(Cl)c2)s1 [Analogue 81, 5-(3-Chlorophenyl)-N-(5-nitrothiazol-2-yl)thiophene-2-carboxamide] | 5.5 (≈ 2.01 µg/mL) | 0.7 (≈ 0.256 µg/mL) |
| O=C(Nc1ncc([N+](=O)[O-])s1)c1ccc(-c2ccsc2)s1 [Analogue 82, N-(5-Nitrothiazol-2-yl)-2,3′-bithiophene-5-carboxamide] | 94.8 (≈ 32 µg/mL) | 3 (≈ 1.01 µg/mL) |
| O=C(Nc1ncc([N+](=O)[O-])s1)c1ccc(-c2ccoc2)s1 [Analogue 83, 5-(Furan-3-yl)-N-(5-nitrothiazol-2-yl)thiophene-2-carboxamide] | 12.4 (≈ 3.98 µg/mL) | 7.8 (≈ 2.51 µg/mL) |
